The supplement of paper PMC10307832

Key:
Assay in all cases: relative viability (nuclei count vs DMSO), 5 days (fraction); higher = more cells survive
[1] = compound: CC1=CN2C(=O)C=C(N=C2C(=C1)C(C)NC3=CC=CC=C3)N4CCOCC4 [TGX 221] + COc1cccc2cc(-c3nc([C@H]4CC[C@H](C(=O)O)CC4)n4ncnc(N)c34)[nH]c12 [OSI-027] (partner 0.5 µM)
Method in brief: (§1)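 Lung cancer cell lines in 1536-well plates got either a single drug or a fixed anchor-drug dose together with five library-drug doses (not always all listed) in √10 steps, by pin tool, on the day after seeding. Nuclei were counted after 5 days, and relative viability is the treated-to-vehicle ratio of nuclei counts. Values are medians of duplicate plates.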

[2] = compound: C1=CC=C(C(=C1)C2=CC=C(C=C2)C3=CSC4=C3C(=C(C(=O)N4)C#N)O)O + O=C(CCCCCCC(=O)Nc1ccccc1)NO [Vorinostat] (partner 1 µM)
Method in brief: as §1

[3] = compound: O=C(CCCCCCNC(=O)c1cnc(N(c2ccccc2)c2ccccc2)nc1)NO [Ricolinostat] + Cc1nc(NC(=O)N2CCC[C@H]2C(N)=O)sc1-c1ccnc(C(C)(C)C(F)(F)F)c1 [Alpelisib] (partner 2 µM)
Method in brief: as §1

[4] = compound: C1=CC=C(C(=C1)C2=CC=C(C=C2)C3=CSC4=C3C(=C(C(=O)N4)C#N)O)O + COc1cccc2cc(-c3nc([C@H]4CC[C@H](C(=O)O)CC4)n4ncnc(N)c34)[nH]c12 [OSI-027] (partner 0.5 µM)
Method in brief: as §1

Cell Line | relative viability ([1]; first compound 0.08 µM) | relative viability ([1]; first compound 0.253 µM) | relative viability ([1]; first compound 0.8 µM) | relative viability ([1]; first compound 2.53 µM) | relative viability ([1]; first compound 8 µM) | relative viability ([2]; first compound 0.08 µM) | relative viability ([2]; first compound 0.253 µM) | relative viability ([2]; first compound 0.8 µM) | relative viability ([2]; first compound 2.53 µM) | relative viability ([2]; first compound 8 µM) | relative viability ([3]; first compound 0.08 µM) | relative viability ([3]; first compound 0.253 µM) | relative viability ([3]; first compound 0.8 µM) | relative viability ([3]; first compound 2.53 µM) | relative viability ([4]; first compound 0.08 µM) | relative viability ([4]; first compound 0.253 µM) | relative viability ([4]; first compound 0.8 µM) | relative viability ([4]; first compound 2.53 µM) | relative viability ([4]; first compound 8 µM)
HCC-827 | 0.735 | 0.761 | 0.799 | 0.727 | 0.78 | 0.666 | 0.946 | 0.95 | 0.872 | 0.918 | 0.615 | 0.938 | 0.935 | 0.985 | 0.691 | 0.862 | 0.699 | 0.881 | 0.739
HOP-62 | 0.787 | 0.812 | 0.788 | 0.807 | 0.835 | 0.586 | 0.856 | 0.607 | 0.647 | 0.522 | 0.932 | 0.901 | 0.844 | 0.848 | 0.795 | 0.728 | 0.591 | 0.958 | 0.756
IA-LM |  |  |  |  |  |  | 1.37 | 0.856 | 1 | 0.376 | 0.616 | 0.819 | 0.623 | 0.363 |  |  |  |  | 
LC-2-ad | 0.745 | 0.759 | 0.931 | 0.846 | 0.804 | 0.627 | 0.643 | 0.705 | 0.722 | 0.654 | 0.786 | 0.853 | 0.839 | 0.663 | 0.778 | 0.951 | 0.822 | 0.743 | 0.759
LCLC-97TM1 | 0.357 | 0.466 | 0.494 | 0.485 | 0.546 | 0.614 | 1.42 | 0.636 | 0.724 | 0.431 | 0.177 | 0.288 | 0.188 | 0.306 | 0.406 | 1.02 | 0.72 | 0.707 | 0.425
LCLC-103H | 0.425 | 0.453 | 0.438 | 0.394 | 0.411 | 0.722 | 0.81 | 0.707 | 0.767 | 0.728 | 0.814 | 0.971 | 0.883 | 0.959 | 0.372 | 0.39 | 0.519 | 0.469 | 0.434
LK-2 | 0.212 | 0.246 | 0.216 | 0.225 | 0.237 | 0.22 | 0.26 | 0.28 | 0.321 | 0.255 |  | 0.995 | 1.07 | 1.62 |  | 0.161 | 0.178 | 0.218 | 0.203
LOU-NH91 | 0.711 | 0.72 | 0.727 | 0.745 | 0.701 | 0.892 | 0.926 | 0.888 | 0.886 | 0.848 |  | 0.735 | 0.709 | 0.699 | 0.765 | 0.721 | 0.71 | 0.727 | 0.69
LU99A | 0.275 | 0.313 | 0.328 | 0.346 | 0.293 | 0.501 | 0.478 | 0.702 | 0.49 | 0.425 | 0.438 | 0.512 | 0.362 | 0.437 | 0.3 | 0.263 | 0.27 | 0.345 | 0.301
